Entries after “also recorded” stand apart in the source; their conditions may differ.
Assays:
[1] = test system: oligodendrocytes and neurons; experiment: MTS metabolic activity assay (CellTiter 96 AQueous One) of demyelinated cell cultures
Experimental: Metabolic activity of cells was then measured by an MTS assay as described in the text.
Monitoring of metabolic activity (CellTiter 96® AQueous One; Promega) is used to identify concentrations that caused a minimum amount of damage to the oligodendrocytes and neurons. In this assay a tetrazolium compound (MTS) and an electron coupling reagent (phenazine ethosulfate) are used for calorimetric detection of metabolic activity. MTS is bioreduced, presumably by NADPH or NADH, into a colored formazan product that is soluble in tissue culture medium and can be detected spectrophotometrically. Absorbance at about […] is proportional to metabolic activity and is commonly used to monitor the number of living cells in culture.

[2] = test system: Xenopus tadpoles; conditions: 0.1 to 0.2 μg/ml in tadpole bins; cited from earlier work
[3] = test system: animals; conditions: injection of 2 μl of a 1% solution; cited from earlier work

Compound	effect on cellular metabolism / damage to neural or glial cell bodies (metabolic assay) ([1]; 10 μg/ml, 10 minute exposure)	demyelination in Xenopus tadpoles [2]	cellular damage (metabolic assay) ([1]; relatively low concentrations (0.1%), 10 minutes)	local demyelination in animals [3]
Oc1c(Cl)cc(Cl)c(Cl)c1Cc1c(O)c(Cl)cc(Cl)c1Cl [hexachlorophene]	without an observable effect on cellular metabolism; also recorded: mild enough to prevent significant damage to the neural or glial cell bodies	cause demyelination	–	–
lysophosphatidylcholine	–	–	significant cellular damage	cause local demyelination
